Assay [1] addresses T1, RNA-binding protein pos-1 (Caenorhabditis elegans, UniProt G5EF15).
T1 sequence (G5EF15 whole entry): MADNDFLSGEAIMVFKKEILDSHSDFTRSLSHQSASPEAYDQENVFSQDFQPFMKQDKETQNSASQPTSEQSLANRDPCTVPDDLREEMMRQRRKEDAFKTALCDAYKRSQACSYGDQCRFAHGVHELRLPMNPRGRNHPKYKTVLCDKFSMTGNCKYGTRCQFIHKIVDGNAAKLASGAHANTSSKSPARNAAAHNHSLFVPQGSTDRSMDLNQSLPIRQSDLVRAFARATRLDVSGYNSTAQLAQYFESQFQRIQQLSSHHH
As to the kind of experiment: inhibitors of POS-1/mex-3 RNA binding, dose response, biochemical, fluorescence polarization (AID 1964).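 Also: purified POS-1 fused to maltose binding protein made in E. coli; potency of compounds blocking POS-1 binding to fluorescent RNA.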 On the technique in general: Fluorescence polarisation rises when a labelled molecule tumbles more slowly, as on binding a larger partner.

Assay [2] has as its target T2, Zinc finger protein mex-5 (Caenorhabditis elegans, UniProt Q9XUB2).
T2 sequence (Q9XUB2 whole entry): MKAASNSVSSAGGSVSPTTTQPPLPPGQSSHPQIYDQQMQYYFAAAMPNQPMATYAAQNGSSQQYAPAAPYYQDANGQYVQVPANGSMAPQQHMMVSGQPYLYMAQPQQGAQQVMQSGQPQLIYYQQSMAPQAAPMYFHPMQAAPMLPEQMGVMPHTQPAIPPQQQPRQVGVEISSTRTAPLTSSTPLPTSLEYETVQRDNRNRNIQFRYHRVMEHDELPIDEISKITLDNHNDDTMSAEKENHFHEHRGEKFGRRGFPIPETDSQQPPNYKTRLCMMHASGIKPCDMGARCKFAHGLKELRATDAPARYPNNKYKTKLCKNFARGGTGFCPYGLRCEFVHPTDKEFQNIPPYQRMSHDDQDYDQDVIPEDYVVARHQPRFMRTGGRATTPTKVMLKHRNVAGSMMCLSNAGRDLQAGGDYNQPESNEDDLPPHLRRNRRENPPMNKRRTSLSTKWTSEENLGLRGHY
As to the kind of experiment: MEX-5/TCR-2 RNA interaction inhibitors, dose response, biochemical, C. elegans, fluorescence polarization (AID 1960).

Another assay has as its system CHO. As to the kind of experiment: cytotoxicity in TLR9-MyD88 CHO cells, dose response, cytotoxicity control for TLR9-MyD88 binding inhibitor project, cell-based, luminescence (AID 588339).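 Also: CHO cells stably coexpressing TLR9 and MyD88 fusions from primary screen; compound exposure lasted 48 hours before viability readout.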 The format is functional, hamster. Conditions: Cricetulus griseus.
A further assay addresses Beta Lactamase (Pseudomonas aeruginosa, UniProt Q932Y6). Description: beta-lactamase reporter inhibitor potency, dose response, artefact control for TLR9-MyD88 binding inhibitor project, BLA reporter cells, FRET fluorescence (AID 588341).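 Also: cell based assay in CHO-K1 cells stably expressing beta-lactamase.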 The format is cell-based.
Assay [3] has as its target T3, Corticotropin-releasing factor receptor 2/Corticotropin-releasing factor-binding protein (Homo sapiens, UniProt P24387+Q13324).
T3 sequence (Q13324 whole entry): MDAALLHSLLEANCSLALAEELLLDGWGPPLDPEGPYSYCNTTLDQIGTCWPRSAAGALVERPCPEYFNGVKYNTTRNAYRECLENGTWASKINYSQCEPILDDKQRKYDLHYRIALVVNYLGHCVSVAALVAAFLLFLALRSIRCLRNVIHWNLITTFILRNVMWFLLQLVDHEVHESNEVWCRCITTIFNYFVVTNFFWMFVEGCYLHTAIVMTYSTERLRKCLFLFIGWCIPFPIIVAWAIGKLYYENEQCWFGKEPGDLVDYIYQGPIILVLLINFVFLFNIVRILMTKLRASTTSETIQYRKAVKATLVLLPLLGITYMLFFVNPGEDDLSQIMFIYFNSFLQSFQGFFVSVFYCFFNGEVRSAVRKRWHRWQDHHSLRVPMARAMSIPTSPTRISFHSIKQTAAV
T3 sequence (P24387 whole entry): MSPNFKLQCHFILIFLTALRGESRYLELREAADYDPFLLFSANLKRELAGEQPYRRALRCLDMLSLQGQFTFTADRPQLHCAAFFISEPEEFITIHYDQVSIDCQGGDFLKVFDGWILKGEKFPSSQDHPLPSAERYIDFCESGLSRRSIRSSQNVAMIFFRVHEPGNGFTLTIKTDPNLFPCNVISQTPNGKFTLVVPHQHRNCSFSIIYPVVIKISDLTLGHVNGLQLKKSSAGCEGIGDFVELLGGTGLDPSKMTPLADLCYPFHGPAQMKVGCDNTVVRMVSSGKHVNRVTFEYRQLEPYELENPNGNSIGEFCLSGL
Description: activators of CRF receptor 2 with binding protein – uHTS hits, confirmation (AID 602473). The format is functional. The following applies: read-out: EC50_Mean.

In a further assay the target is T4, Caspase-3 (Homo sapiens, UniProt P42574).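 Also: Dose-response selectivity test against caspase-3 for candidate inhibitors of sentrin-specific proteases (SENPs).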
T4 sequence (P42574 whole entry): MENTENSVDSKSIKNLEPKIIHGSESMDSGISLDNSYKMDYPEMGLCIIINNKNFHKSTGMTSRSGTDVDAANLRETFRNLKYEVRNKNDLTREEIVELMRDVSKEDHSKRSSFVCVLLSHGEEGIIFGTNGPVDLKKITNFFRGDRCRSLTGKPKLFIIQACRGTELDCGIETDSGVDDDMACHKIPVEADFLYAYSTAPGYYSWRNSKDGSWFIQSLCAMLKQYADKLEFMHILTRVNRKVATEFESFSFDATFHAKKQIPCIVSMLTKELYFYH
The format is functional.

For assay [4], the target named is T5, Sentrin-specific protease 7 (Homo sapiens, UniProt Q9BQF6).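 Also: Luminescence-based dose-response confirmation of ultra-high-throughput screening hits, measuring inhibition of SENP7.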
T5 sequence (Q9BQF6 whole entry): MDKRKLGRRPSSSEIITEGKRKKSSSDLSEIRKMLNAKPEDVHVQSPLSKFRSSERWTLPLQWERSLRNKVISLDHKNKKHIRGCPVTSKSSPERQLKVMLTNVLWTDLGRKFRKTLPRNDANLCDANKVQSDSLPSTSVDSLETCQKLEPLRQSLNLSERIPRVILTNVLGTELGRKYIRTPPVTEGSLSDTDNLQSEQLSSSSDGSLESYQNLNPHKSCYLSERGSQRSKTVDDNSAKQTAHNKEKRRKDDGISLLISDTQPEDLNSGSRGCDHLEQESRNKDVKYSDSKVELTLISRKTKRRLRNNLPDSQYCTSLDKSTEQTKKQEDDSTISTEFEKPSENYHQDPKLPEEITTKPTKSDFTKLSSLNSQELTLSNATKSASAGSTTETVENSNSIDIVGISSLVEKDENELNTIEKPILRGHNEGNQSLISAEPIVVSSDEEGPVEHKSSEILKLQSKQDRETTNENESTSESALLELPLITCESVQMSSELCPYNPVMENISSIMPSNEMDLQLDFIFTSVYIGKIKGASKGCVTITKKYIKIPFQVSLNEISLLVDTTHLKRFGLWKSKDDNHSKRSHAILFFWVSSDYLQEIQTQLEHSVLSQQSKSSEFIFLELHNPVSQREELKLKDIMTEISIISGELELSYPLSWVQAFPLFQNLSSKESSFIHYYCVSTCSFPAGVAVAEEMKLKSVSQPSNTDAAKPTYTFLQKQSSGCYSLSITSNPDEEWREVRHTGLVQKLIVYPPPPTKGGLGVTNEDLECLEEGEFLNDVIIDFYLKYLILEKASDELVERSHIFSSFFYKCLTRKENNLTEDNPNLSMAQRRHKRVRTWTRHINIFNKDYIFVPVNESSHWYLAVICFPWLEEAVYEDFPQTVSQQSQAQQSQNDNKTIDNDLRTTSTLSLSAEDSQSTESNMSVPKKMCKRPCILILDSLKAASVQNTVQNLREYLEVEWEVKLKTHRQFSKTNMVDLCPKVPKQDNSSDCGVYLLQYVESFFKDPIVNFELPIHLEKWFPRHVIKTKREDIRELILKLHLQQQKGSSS
The format is functional.

For assay [5], the target named is T6, Sentrin-specific protease 6 (Homo sapiens, UniProt Q9GZR1).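 Also: Luminescence-based dose-response confirmatory assay of SENP6 inhibition, following up an ultra-high-throughput screen.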
T6 sequence (Q9GZR1 whole entry): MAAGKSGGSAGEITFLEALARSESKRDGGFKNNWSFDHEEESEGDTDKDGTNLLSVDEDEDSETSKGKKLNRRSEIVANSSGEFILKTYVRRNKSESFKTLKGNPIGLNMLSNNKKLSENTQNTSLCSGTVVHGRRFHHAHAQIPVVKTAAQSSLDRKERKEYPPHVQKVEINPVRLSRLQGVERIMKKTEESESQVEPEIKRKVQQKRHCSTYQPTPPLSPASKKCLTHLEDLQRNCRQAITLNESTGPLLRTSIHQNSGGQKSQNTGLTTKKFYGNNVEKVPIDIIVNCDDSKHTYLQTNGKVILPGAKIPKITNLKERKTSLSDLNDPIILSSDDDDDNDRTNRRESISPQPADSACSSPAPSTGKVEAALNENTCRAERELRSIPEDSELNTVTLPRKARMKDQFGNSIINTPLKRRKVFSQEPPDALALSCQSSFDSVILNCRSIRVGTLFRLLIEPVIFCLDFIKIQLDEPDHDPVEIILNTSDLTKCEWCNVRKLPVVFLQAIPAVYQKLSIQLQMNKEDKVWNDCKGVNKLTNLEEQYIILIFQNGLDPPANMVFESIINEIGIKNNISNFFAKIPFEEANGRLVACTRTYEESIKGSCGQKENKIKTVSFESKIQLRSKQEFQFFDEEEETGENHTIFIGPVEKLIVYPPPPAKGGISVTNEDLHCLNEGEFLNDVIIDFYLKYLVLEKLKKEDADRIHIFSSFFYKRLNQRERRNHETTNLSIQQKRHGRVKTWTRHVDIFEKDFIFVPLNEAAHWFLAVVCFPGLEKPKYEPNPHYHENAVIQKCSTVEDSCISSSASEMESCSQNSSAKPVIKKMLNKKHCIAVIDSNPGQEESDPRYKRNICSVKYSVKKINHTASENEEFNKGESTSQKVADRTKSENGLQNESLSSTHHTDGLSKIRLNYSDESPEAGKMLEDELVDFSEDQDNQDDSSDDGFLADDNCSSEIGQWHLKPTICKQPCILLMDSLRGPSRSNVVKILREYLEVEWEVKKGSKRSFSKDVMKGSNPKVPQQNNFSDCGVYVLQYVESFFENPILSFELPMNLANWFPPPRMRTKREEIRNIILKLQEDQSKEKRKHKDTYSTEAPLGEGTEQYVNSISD
The format is functional.

Assay [6] concerns the target T7, Sentrin-specific protease 8 (Homo sapiens, UniProt Q96LD8).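 Also: luminescence read-out of SENP8 inhibition, dose-response confirmation following an ultra-high-throughput screen.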
T7 sequence (Q96LD8 whole entry): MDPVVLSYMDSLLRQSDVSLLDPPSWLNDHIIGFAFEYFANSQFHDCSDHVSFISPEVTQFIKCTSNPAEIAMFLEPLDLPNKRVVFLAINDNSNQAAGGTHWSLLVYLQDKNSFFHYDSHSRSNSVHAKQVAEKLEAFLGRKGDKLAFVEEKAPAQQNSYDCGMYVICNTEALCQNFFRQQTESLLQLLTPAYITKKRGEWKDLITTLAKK
The format is functional.

Assay [7] concerns the target T8, Microphthalmia-associated transcription factor (Homo sapiens, UniProt O75030).
T8 sequence (O75030 whole entry): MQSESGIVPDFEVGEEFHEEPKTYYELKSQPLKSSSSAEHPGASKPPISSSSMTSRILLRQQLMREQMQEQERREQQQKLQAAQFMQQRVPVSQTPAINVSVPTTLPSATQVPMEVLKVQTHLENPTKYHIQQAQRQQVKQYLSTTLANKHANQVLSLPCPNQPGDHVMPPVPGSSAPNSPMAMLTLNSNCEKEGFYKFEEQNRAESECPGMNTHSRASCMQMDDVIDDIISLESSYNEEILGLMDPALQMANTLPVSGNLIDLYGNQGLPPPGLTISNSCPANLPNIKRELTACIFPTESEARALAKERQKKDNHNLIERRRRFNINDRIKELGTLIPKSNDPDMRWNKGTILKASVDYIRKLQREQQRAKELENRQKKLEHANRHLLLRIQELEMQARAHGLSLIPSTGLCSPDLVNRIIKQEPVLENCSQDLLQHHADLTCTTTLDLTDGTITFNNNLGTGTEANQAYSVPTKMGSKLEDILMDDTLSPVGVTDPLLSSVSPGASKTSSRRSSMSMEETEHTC
Description: TRPM1 promoter luciferase signal decrease, dose response, MITF inhibitor project, cell-based, SK-MEL-5, cherry-picked, set 3 (AID 493073).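 Also: SK-MEL-5 melanoma cells with luciferase driven by the MITF target TRPM1 promoter.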 The format is functional.

The target of assay [8] is Apoptotic protease-activating factor 1 (Homo sapiens, UniProt O14727). The format is functional.

The structures appear in SMILES notation. Calls of active or inactive are those of the source.

Usually IC50 stands for the concentration needed to halve the response being measured. In general, AC50 refers to the midpoint of the concentration-response curve, whichever way the signal moves.

Apoptotic protease-activating factor 1, sequence (O14727 whole entry): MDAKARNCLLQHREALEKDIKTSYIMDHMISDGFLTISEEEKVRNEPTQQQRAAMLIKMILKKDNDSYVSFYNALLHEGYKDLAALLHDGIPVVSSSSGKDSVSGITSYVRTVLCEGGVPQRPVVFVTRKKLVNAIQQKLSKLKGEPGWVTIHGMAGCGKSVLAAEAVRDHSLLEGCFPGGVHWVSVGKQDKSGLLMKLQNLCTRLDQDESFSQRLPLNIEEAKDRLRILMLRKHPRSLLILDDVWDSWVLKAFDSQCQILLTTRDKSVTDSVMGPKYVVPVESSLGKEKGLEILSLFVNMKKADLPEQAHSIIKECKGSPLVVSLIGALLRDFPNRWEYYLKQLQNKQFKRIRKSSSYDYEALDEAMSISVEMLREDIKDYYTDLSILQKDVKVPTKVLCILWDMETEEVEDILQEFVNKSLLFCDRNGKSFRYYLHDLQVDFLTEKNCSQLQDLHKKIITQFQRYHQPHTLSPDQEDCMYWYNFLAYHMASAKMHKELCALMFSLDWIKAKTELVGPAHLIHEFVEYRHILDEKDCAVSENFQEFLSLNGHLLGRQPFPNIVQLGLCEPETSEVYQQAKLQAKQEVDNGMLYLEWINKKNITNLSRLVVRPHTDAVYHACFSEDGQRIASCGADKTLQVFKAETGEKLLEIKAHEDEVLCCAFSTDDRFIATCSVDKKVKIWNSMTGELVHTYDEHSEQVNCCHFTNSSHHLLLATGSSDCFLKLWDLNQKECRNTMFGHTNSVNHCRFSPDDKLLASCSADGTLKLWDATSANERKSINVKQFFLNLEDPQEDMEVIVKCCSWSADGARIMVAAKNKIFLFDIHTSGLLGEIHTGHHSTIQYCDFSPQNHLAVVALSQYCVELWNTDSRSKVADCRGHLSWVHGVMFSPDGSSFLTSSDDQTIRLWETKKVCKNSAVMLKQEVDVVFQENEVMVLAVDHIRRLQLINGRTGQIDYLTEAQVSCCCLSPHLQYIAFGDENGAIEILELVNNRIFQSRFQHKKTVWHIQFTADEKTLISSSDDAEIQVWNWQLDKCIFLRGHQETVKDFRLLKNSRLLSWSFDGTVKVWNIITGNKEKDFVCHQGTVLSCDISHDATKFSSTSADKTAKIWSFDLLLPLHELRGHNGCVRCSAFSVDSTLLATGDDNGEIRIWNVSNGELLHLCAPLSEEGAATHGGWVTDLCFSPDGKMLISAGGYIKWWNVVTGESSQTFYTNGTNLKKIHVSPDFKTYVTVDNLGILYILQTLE
Beta Lactamase, sequence (Q932Y6 whole entry): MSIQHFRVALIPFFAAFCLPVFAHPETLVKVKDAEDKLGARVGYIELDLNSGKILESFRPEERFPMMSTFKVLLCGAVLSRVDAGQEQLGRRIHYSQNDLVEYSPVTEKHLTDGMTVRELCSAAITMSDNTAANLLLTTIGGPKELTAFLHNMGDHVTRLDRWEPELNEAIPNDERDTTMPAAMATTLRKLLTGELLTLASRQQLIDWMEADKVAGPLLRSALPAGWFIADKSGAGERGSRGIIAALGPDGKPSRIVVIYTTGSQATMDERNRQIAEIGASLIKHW

With `COc1ccc(C(=O)c2sc3nc(C)cc(-c4cccs4)c3c2N)cc1OC`, the EC50 in assay [1] was 21.2 µM (active); in assay [2], 22.6 µM (active); in assay [3] it was 8.12 µM (active). Further, the figures for the IC50 in the assay with CHO and at Beta Lactamase were 50.2 µM (inactive) and 8.85 µM (active), respectively.

Take `CC(=O)NC1=C(N(C)C2CCS(=O)(=O)C2)C(=O)c2ccccc2C1=O` (configuration not stated): the IC50 at Caspase-3 was 17 µM (active); in assay [4], 13 µM (active); in assay [5], 5.25 µM (active); in assay [6], 13.4 µM (active); in assay [8], 22 µM (active). For the same molecule, in assay [7], the AC50 was 21.2 µM (active).

On to `O=C(O)c1cccc(NC2=C(N3CCOCC3)C(=O)c3ccccc3C2=O)c1`, for which the IC50 in assay [8] is 14.8 µM (active).

Source of the values: ChEMBL document CHEMBL1201862, “PubChem BioAssay data set” (2004).
